Here are results for 2 compounds from ChEMBL document CHEMBL3525989 (Drug Metab Dispos, 2011).

Series [1] has as its target T1, Cytochrome P450 3A4 (Homo sapiens, UniProt P08684). The series can be described thus: Inhibition of recombinant CYP3A4 (unknown origin) expressed in baculosomes in presence of 1 mM NADPH and 1 mM nucleophilic trapping agent glutathione. It counts as ADME. Conditions: recombinant enzyme; call rule not given here.
Series [2] addresses T1, Cytochrome P450 3A4. The series is described as follows: Inhibition of recombinant CYP3A4 (unknown origin) expressed in baculosomes in presence of 1 mM NADPH and 1 mM nucleophilic trapping agent semicarbazide. It counts as ADME. Conditions: recombinant enzyme.
Series [3] deals with T1, Cytochrome P450 3A4. The series is described as follows: Inhibition of recombinant CYP3A4 (unknown origin) expressed in baculosomes in presence of 1 mM NADPH and 1 mM nucleophilic trapping agent potassium cyanide. It counts as ADME. Conditions: recombinant enzyme.
In series [4] the target is T1, Cytochrome P450 3A4. The series can be described thus: Inhibition of recombinant CYP3A4 (unknown origin) expressed in baculosomes in presence of 1 mM NADPH and 1 mM nucleophilic trapping agent methyl hydroxylamine. As to conditions: recombinant enzyme. The class given is ADME.
Series [5] addresses T1, Cytochrome P450 3A4. The series can be described thus: Inhibition of recombinant CYP3A4 (unknown origin) expressed in baculosomes in presence of 1 mM NADPH and 1 mM nucleophilic trapping agent N-acetyl cysteine. It counts as ADME. Conditions: recombinant enzyme.
Series [6] deals with T1, Cytochrome P450 3A4. The series can be described thus: Inhibition of recombinant CYP3A4 (unknown origin) expressed in baculosomes in presence of 1 mM NADPH and 1 mM nucleophilic trapping agent N-acetyl lysine. It counts as ADME. As to conditions: recombinant enzyme.
Series [7] has as its target T1, Cytochrome P450 3A4. The series can be described thus: Inhibition of recombinant CYP3A4 (unknown origin) expressed in baculosomes in presence of 1 mM NADPH and 1 mM nucleophilic trapping agent superoxide dismutase. Conditions: recombinant enzyme. The class given is ADME.
For series [8], the target named is T1, Cytochrome P450 3A4. The series is described as follows: Inhibition of recombinant CYP3A4 (unknown origin) expressed in baculosomes in presence of 1 mM NADPH and 1 mM nucleophilic trapping agent catalase. The class given is ADME. As to conditions: recombinant enzyme.
Series [9] has as its target T1, Cytochrome P450 3A4. The series can be described thus: Inhibition of recombinant CYP3A4 (unknown origin) expressed in baculosomes in presence of 1 mM NADPH and 1 mM nucleophilic trapping agent dimethyl pyrroline N-oxide. The class given is ADME. As to conditions: recombinant enzyme.
Series [10] deals with T1, Cytochrome P450 3A4. The series can be described thus: Inhibition of recombinant CYP3A4 (unknown origin) expressed in baculosomes assessed as decrease in CYP3A4-CO binding at 10 uM preincubated for 5 mins measured after […] by LC-tandem mass spectrometry analysis in presence of 1 mM NADPH. The class given is ADME. Conditions: recombinant enzyme.
Series [11] addresses T1, Cytochrome P450 3A4. The series can be described thus: Inhibition of recombinant CYP3A4 (unknown origin) expressed in baculosomes assessed as decrease in CYP3A4-CO binding at 10 uM preincubated for 5 mins measured after overnight washout with 100 mM potassium phosphate buffer by LC-tandem mass spectrometry analysis in presence of 1 mM NADPH. The class given is ADME. As to conditions: recombinant enzyme.

For series [12], the target named is T2, CYP3A4 (Homo sapiens, UniProt P08684). The series can be described thus: Residual activity of recombinant CYP3A4 (unknown origin) expressed in baculosomes at 10 uM measured after 1.5 min in presence of 1 mM NADPH.
The target of series [13] is T1, Cytochrome P450 3A4. The series can be described thus: Binding affinity to CYP3A4 (unknown origin). As to conditions: read-out: Ks. The class given is ADME.
Series [14] addresses T2, CYP3A4. The series is described as follows: Inhibition of recombinant CYP3A4 (unknown origin) expressed in baculosomes assessed as enzyme remaining activity at 10 uM measured after 1.5 min in presence of 1 mM NADPH. It counts as ADME. Conditions: read-out: Activity.
Series [15] deals with T2, CYP3A4. The series can be described thus: (§1) Inhibition of recombinant CYP3A4 (unknown origin) expressed in baculosomes in presence of 1 mM NADPH. The class given is ADME. Conditions: human, recombinant CYP3A4 expressed in baculosomes.
Series [16] concerns the target T1, Cytochrome P450 3A4. The series is described as §1. It counts as ADME.

T1 sequence (P08684 whole entry): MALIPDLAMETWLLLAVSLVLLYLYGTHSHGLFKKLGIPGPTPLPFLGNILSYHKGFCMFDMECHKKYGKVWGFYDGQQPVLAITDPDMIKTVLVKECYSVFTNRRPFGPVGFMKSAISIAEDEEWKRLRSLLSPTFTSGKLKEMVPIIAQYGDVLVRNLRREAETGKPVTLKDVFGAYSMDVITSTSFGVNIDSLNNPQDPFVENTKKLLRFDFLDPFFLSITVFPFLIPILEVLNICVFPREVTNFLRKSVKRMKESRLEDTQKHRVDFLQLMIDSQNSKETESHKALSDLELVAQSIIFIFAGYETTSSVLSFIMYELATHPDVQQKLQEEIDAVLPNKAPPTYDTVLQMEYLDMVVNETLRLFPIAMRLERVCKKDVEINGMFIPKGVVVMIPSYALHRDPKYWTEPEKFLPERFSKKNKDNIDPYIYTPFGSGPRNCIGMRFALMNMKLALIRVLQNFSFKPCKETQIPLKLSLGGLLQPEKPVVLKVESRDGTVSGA
T2 sequence (P08684 whole entry): as above

On to `COCC(=O)O[C@]1(CCN(C)CCCc2nc3ccccc3[nH]2)CCc2cc(F)ccc2[C@@H]1C(C)C` [MIBEFRADIL], for which the “inhibition (INH)” value in series [1], in series [2], in series [3], in series [4], in series [5] and in series [6] was “Active” throughout. The “inhibition (INH)” value in series [7], in [8], in [9], in series [10] and in series [11] was “Active” throughout. Besides, the residual activity at 0.025 h, 10 µM in series [12] is less than 20%.
Regarding `CC(C)[C@H]1c2ccc(F)cc2CC[C@]1(O)CCN(C)CCCc1nc2ccccc2[nH]1`, the “inhibition (INH)” value in series [10] and in series [11] was “Active” in each case. Besides, in series [13], the Kd turned out to be 1390 nM. Also, the activity at 0.025 h, 10 µM in series [14] came to 60%. Also, in series [15], the kinact is 0.00133 s⁻¹. Moreover, in [16], the inhibition constant (Ki) worked out at 820 nM.
